Values joined by “and” are separate entries in the source; they are usually repeats but may differ in a detail not shown here. Equal entries are not always repeated. Where two headings read alike, the source gives them in different places. Positions of bridges follow the written chain, without caps; N, C: chain ends. Residues, ends and D or L forms follow the SMILES beside them.
Tests used:
[1] = tested on: A. veronii ACCC61732 mature biofilms; assay: Eradication of mature biofilms, crystal violet; assay type: cell-based; conditions: 16× MIC, 24 h on 24 h biofilm
Method: A. veronii ACCC61732 cells (1 × 10^8 CFU/mL) were cultured in TSB medium in the 96-well plates at 37 °C for 24 h.

A. veronii ACCC61732 [2] = assay: Time-killing curves; assay type: cell-based; conditions: 2× MIC; 1 × 10^5 CFU/mL, colony counting, 0–24 h
Method: Time-killing curves were performed as previously described. […] The sample of 100 μL was taken from each flask at 0, 0.5, 1, 2, 4, 6, 8, 10, 20, and 24 h, respectively, and serially diluted for colony counting. PBS and CIP were used as the negative and positive control, respectively.

E. coli CVCCO157 = assay: MIC, microtiter broth dilution; assay type: cell-based; conditions: 37 °C, 16–18 h, three experiments
Text: (§1) All experiments were repeated three times.

MDR A. veronii ACCC61732 = assay: Mouse peritonitis model, survival; assay type: in vivo, ICR mice; conditions: 5 μmol/kg i.p. 0.5 h after infection, seven days, six mice
Method: […]. The mice injected with only bacteria or saline served as the negative and blank control. The mouse survival was recorded daily for seven days.

A. veronii ACCC61732 [3] = assay: Resistance development, 30 serial passages; assay type: cell-based; conditions: A. veronii ACCC61732, 30 passages (30 days)
Method: The development of bacterial resistance of peptides was performed by the MIC assays. […] GEN, CIP, and PMB were used as controls. […] The MIC values were measured as described above. The serial passaging was repeated for 30 days.

[4] = tested on: A. veronii ACCC61732 in biofilm; assay type: cell-based; conditions: 2 h
Method: The mid-log phase A. veronii ACCC61732 cells (1 × 10^8 CFU/mL) were inoculated into in the 96-well plates and cultured for 24 h at 37 °C. The plates were washed twice with PBS. […] PBS was used as the negative control. The plates were treated with ultrasound for 5 min and the viable bacteria were counted on the TSA plates.

A. veronii ACCC61732 [5] = assay: Post-antibiotic effect (PAE); assay type: cell-based; conditions: for PAE: 2 h exposure, 1000-fold dilution, 37 °C, triplicate
Method: The samples were taken from flasks for counting each hour until bacterial cultures became turbid. The untreated bacteria severed as controls. The PAE was calculated using the following equation: PAE = T − C, where T is the time (h) required for the CFU in the test culture to increase by 10-fold from the count immediately after the drug removal and C is the corresponding time (h) for the control. The experiment was performed in triplicate.

S. pullorum CVCC1809 = assay: microbe, parasite or virus in culture; assay type: cell-based; conditions: S. pullorum CVCC1809, broth dilution, 37 °C, 16–18 h, three experiments
Text: as §1

S. enteritidis CVCC3377 = assay: microbe, parasite or virus in culture; assay type: cell-based
Text: as §1

Escherichia coli CVCC195 = assay: microbe, parasite or virus in culture; assay type: cell-based; conditions: Escherichia coli CVCC195, broth dilution, 37 °C, 16–18 h, three experiments
Text: as §1

[6] = tested on: Staphylococcus aureus ATCC43300; assay: microbe, parasite or virus in culture; assay type: cell-based; conditions: Staphylococcus aureus ATCC43300; broth dilution, 37 °C, 16–18 h, three experiments
Text: as §1

A. veronii X-1-06909 = assay: microbe, parasite or virus in culture; assay type: cell-based
Text: as §1

E. coli CVCC25922 = assay: microbe, parasite or virus in culture; assay type: cell-based; conditions: E. coli CVCC25922, broth dilution, 37 °C, 16–18 h, three experiments
Text: as §1

E. coli CVCC1515 = assay: microbe, parasite or virus in culture; assay type: cell-based
Text: as §1

S. pullorum CVCC533 = assay: microbe, parasite or virus in culture; assay type: cell-based
Text: as §1

[7] = tested on: Candida albicans CMCC98001; assay: microbe, parasite or virus in culture; assay type: cell-based; conditions: CMCC98001; read-out: MIC
Text: as §1

S. pullorum CVCC1789 = assay: microbe, parasite or virus in culture; assay type: cell-based
Text: as §1

S. hyicus NCTC10350 = conditions: NCTC10350
Method: (§2) Briefly, the tested strains including Gram-negative bacteria, Gram-positive bacteria, and fungi were cultured to the logarithmic growth phase, diluted to 10^5 CFU/mL, and added into 96-well plates (90 μL/well). Two-fold serial dilutions of peptides or antibiotics dissolved in PBS were added to each well (10 μL/well). […] All experiments were repeated three times.

A. veronii CL0901 = tested on: A. veronii CL0901
Method: as §2

A. veronii ACCC61732 [8] = assay: Mouse peritonitis model, bacterial translocation to organs; assay type: in vivo, ICR mice; conditions: 5 μmol/kg, 24 h post-treatment, colony counting
Method: Sera and organs (livers, kidneys, spleens, and lungs) were collected from the mice at 24 h post-treatment. The organs were homogenized in sterile PBS to evaluate bacterial translocation by colony counting. The levels of cytokines (TNF-α, IL-1β, IL-6, and IL-10) in sera were detected using the ELISA kits.

CC(C)[C@@H]1NC(=O)CNC(=O)[C@H](CC(N)=O)NC(=O)[C@H](CCCNC(=N)N)NC(=O)[C@H](Cc2ccc(O)cc2)NC(=O)[C@H](C(C)C)NC(=O)[C@@H](NC(=O)[C@@H](NC(=O)[C@H](CC(N)=O)NC(=O)[C@H](Cc2c[nH]c3ccccc23)NC(=O)[C@H](C)NC(=O)[C@H](Cc2ccccc2)NC(=O)CN)C(C)C)CSSC[C@@H](C(=O)N[C@@H](Cc2c[nH]cn2)C(=O)N[C@@H](CCCNC(=N)N)C(=O)N2CCC[C@H]2C(=O)N[C@@H](C)C(=O)N[C@@H](CC(N)=O)C(N)=O)NC(=O)[C@H](C(C)C)NC(=O)[C@H](CCCNC(=N)N)NC1=O [N6PNH2] (H-GFAWNVCVYRNGVRVCHRPAN-NH2; disulfide 7-16 (inferred))
inhibition of mature biofilms [1]: 97.16% | time to completely kill A. veronii ACCC61732 (A. veronii ACCC61732 [2]): 2 h | MIC (E. coli CVCCO157): 8 µg/mL | MIC (E. coli CVCCO157; read-out: MIC): 3.31 µM | survival rate of mice (MDR A. veronii ACCC61732): 50% | increase of MIC after 30 serial passages (A. veronii ACCC61732 [3]): three-fold | bacteria in biofilm killed [4]; 8: 57.99% | bacteria in biofilm killed [4]; 16: 67.44% | PAE (A. veronii ACCC61732 [5]; 1× MIC): 0.52 ± 0.01 h | PAEs, range over 1×–4× MIC (A. veronii ACCC61732 [5]; 1× to 4× MIC): 0.52 to 0.68 h | PAE (A. veronii ACCC61732 [5]; 2× MIC): 0.62 ± 0.01 h | PAE (A. veronii ACCC61732 [5]; 4× MIC): 0.68 h and 0.68 ± 0.01 h | MIC (S. pullorum CVCC1809): 8 µg/mL | MIC (S. pullorum CVCC1809; read-out: MIC): 3.31 µM | MIC (S. enteritidis CVCC3377; CVCC3377, read-out: MIC): 0.83 µM | MIC (S. enteritidis CVCC3377; S. enteritidis CVCC3377, broth dilution, 37 °C, 16–18 h, three experiments): 2 µg/mL | MIC (Escherichia coli CVCC195): 8 µg/mL | MIC (Escherichia coli CVCC195; read-out: MIC): 3.31 µM | MIC [6]: >64 µg/mL | MIC (A. veronii X-1-06909; A. veronii X-1-06909, broth dilution, 37 °C, 16–18 h, three experiments): 64 µg/mL | MIC (A. veronii X-1-06909; read-out: MIC): 26.49 µM | MIC (E. coli CVCC25922): 8 µg/mL | MIC (E. coli CVCC25922; read-out: MIC): 3.31 µM | MIC (E. coli CVCC1515; CVCC1515, read-out: MIC): 1.66 µM | MIC (E. coli CVCC1515; E. coli CVCC1515, broth dilution, 37 °C, 16–18 h, three experiments): 4 µg/mL | MIC (S. pullorum CVCC533; CVCC533, read-out: MIC): 13.25 µM | MIC (S. pullorum CVCC533; S. pullorum CVCC533, broth dilution, 37 °C, 16–18 h, three experiments): 32 µg/mL | MIC [7]: >52.98 µM | MIC (S. pullorum CVCC1789; CVCC1789, read-out: MIC): 6.62 µM | MIC (S. pullorum CVCC1789; S. pullorum CVCC1789, broth dilution, 37 °C, 16–18 h, three experiments): 16 µg/mL | MIC (S. hyicus NCTC10350): >52.98 µM | MIC (A. veronii CL0901): 26.49 µM | MIC (A. veronii CL0901; A. veronii CL0901, broth dilution, 37 °C, 16–18 h, three experiments): 64 µg/mL | reduction of bacteria in kidneys (A. veronii ACCC61732 [8]): 18.36% | reduction of bacteria in livers (A. veronii ACCC61732 [8]): 31.54% | reduction of bacteria in lungs (A. veronii ACCC61732 [8]): 15.92% | reduction of bacteria in spleens (A. veronii ACCC61732 [8]): 28.47%
